Laboratory results taken from PubChem BioAssay (NCI).
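Compound exposure: 48 hours, 5 concentrations, 96-well plates. TGI marks complete inhibition of growth.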

Experiments:
Assay in all cases: NCI anticancer screen, dose series, 48 h
786-0 renal = tested on: 786-0 renal
A498 renal = tested on: A498 renal
A549 NSCLC = tested on: A549 NSCLC
ACHN renal = tested on: ACHN renal
BT-549 breast = tested on: BT-549 breast
CAKI-1 renal = tested on: CAKI-1 renal
CCRF-CEM leukemia = tested on: CCRF-CEM leukemia
COLO 205 colon = tested on: COLO 205 colon
DU-145 prostate = tested on: DU-145 prostate
EKVX NSCLC = tested on: EKVX NSCLC
HCC-2998 colon = tested on: HCC-2998 colon
HCT-116 colon = tested on: HCT-116 colon
HCT-15 colon = tested on: HCT-15 colon
HL-60(TB) leukemia = tested on: HL-60(TB) leukemia
HOP-62 NSCLC = tested on: HOP-62 NSCLC
HOP-92 NSCLC = tested on: HOP-92 NSCLC
HS 578T breast = tested on: HS 578T breast
HT29 colon = tested on: HT29 colon
IGROV1 ovarian = tested on: IGROV1 ovarian
K-562 leukemia = tested on: K-562 leukemia
KM12 colon = tested on: KM12 colon
LOX IMVI melanoma = tested on: LOX IMVI melanoma
M14 melanoma = tested on: M14 melanoma
MALME-3M melanoma = tested on: MALME-3M melanoma
MCF7 breast = tested on: MCF7 breast
MDA-MB-231 breast = tested on: MDA-MB-231 breast
MDA-MB-435 = tested on: MDA-MB-435
MDA-N = tested on: MDA-N
MOLT-4 leukemia = tested on: MOLT-4 leukemia
NCI-H226 lung = tested on: NCI-H226 lung
NCI-H23 lung = tested on: NCI-H23 lung
NCI-H460 lung = tested on: NCI-H460 lung
NCI/ADR-RES ovarian = tested on: NCI/ADR-RES ovarian
OVCAR-3 ovarian = tested on: OVCAR-3 ovarian
OVCAR-4 ovarian = tested on: OVCAR-4 ovarian
OVCAR-5 ovarian = tested on: OVCAR-5 ovarian
PC-3 prostate = tested on: PC-3 prostate
RPMI-8226 leukemia = tested on: RPMI-8226 leukemia
RXF 393 renal = tested on: RXF 393 renal
SF-268 CNS = tested on: SF-268 CNS
SF-295 CNS = tested on: SF-295 CNS
SF-539 CNS = tested on: SF-539 CNS
SK-MEL-28 melanoma = tested on: SK-MEL-28 melanoma
SK-MEL-5 melanoma = tested on: SK-MEL-5 melanoma
SK-OV-3 ovarian = tested on: SK-OV-3 ovarian
SN12C renal = tested on: SN12C renal
SNB-19 CNS = tested on: SNB-19 CNS
SNB-75 CNS = tested on: SNB-75 CNS
SR leukemia = tested on: SR leukemia
SW-620 colon = tested on: SW-620 colon
T-47D breast = tested on: T-47D breast
TK-10 renal = tested on: TK-10 renal
U251 CNS = tested on: U251 CNS
UACC-257 melanoma = tested on: UACC-257 melanoma
UACC-62 melanoma = tested on: UACC-62 melanoma
UO-31 renal = tested on: UO-31 renal
OVCAR-8 ovarian = tested on: OVCAR-8 ovarian
SK-MEL-2 melanoma = tested on: SK-MEL-2 melanoma

N#Cc1c(-c2ccc(F)cc2)c(-c2ccc(F)cc2)nn(CCO)c1=O
TGI (786-0 renal): > 100 µM | TGI (A498 renal): > 54.2 µM | TGI (A549 NSCLC): > 100 µM | TGI (ACHN renal): > 81.1 µM | TGI (BT-549 breast): 39.9 µM | TGI (CAKI-1 renal): > 100 µM | TGI (CCRF-CEM leukemia): 24.9 µM | TGI (COLO 205 colon): 2440 nM | TGI (DU-145 prostate): 4.42 µM | TGI (EKVX NSCLC): > 76.6 µM | TGI (HCC-2998 colon): 28.4 µM | TGI (HCT-116 colon): 7.04 µM | TGI (HCT-15 colon): 8.6 µM | TGI (HL-60(TB) leukemia): 0.292 µM | TGI (HOP-62 NSCLC): > 76.1 µM | TGI (HOP-92 NSCLC): > 100 µM | TGI (HS 578T breast): 12.1 µM | TGI (HT29 colon): > 22.9 µM | TGI (IGROV1 ovarian): > 87.4 µM | TGI (K-562 leukemia): > 100 µM | TGI (KM12 colon): 4.49 µM | TGI (LOX IMVI melanoma): > 47.6 µM | TGI (M14 melanoma): > 100 µM | TGI (MALME-3M melanoma): > 100 µM | TGI (MCF7 breast): > 100 µM | TGI (MDA-MB-231 breast): > 71 µM | TGI (MDA-MB-435): 0.608 µM | TGI (MDA-N): 0.121 µM | TGI (MOLT-4 leukemia): > 100 µM | TGI (NCI-H226 lung): > 4.64 µM | TGI (NCI-H23 lung): > 78.3 µM | TGI (NCI-H460 lung): > 25.1 µM | TGI (NCI/ADR-RES ovarian): 22.5 µM | TGI (OVCAR-3 ovarian): 0.69 µM | TGI (OVCAR-4 ovarian): > 100 µM | TGI (OVCAR-5 ovarian): > 100 µM | TGI (PC-3 prostate): 54.7 µM | TGI (RPMI-8226 leukemia): > 100 µM | TGI (RXF 393 renal): 11.2 µM | TGI (SF-268 CNS): > 100 µM | TGI (SF-295 CNS): 37.2 µM | TGI (SF-539 CNS): 553 nM | TGI (SK-MEL-28 melanoma): > 100 µM | TGI (SK-MEL-5 melanoma): > 4.64 µM | TGI (SK-OV-3 ovarian): > 49.6 µM | TGI (SN12C renal): > 100 µM | TGI (SNB-19 CNS): > 100 µM | TGI (SNB-75 CNS): 16.9 µM | TGI (SR leukemia): > 100 µM | TGI (SW-620 colon): > 100 µM | TGI (T-47D breast): > 100 µM | TGI (TK-10 renal): > 100 µM | TGI (U251 CNS): > 100 µM | TGI (UACC-257 melanoma): > 100 µM | TGI (UACC-62 melanoma): > 77 µM | TGI (UO-31 renal): > 100 µM

CC(=O)OC1O[C@@H](C(C)(C)O)CC[C@@H]1[C@H]1CC[C@@]2(C)C3=C(CC[C@]12C)[C@@]1(C)C[C@@H](OC(=O)CC(C)(O)CC(=O)O)[C@H](OC(C)=O)C(C)(C)C1CC3 (stereo partly drawn)
TGI (786-0 renal): 33.9 µM | TGI (A498 renal): 33.8 µM | TGI (A549 NSCLC): 30.9 µM | TGI (ACHN renal): 32.5 µM | TGI (BT-549 breast): 29.9 µM | TGI (CAKI-1 renal): 29.4 µM | TGI (CCRF-CEM leukemia): 41.6 µM | TGI (DU-145 prostate): 33.2 µM | TGI (EKVX NSCLC): 35.3 µM | TGI (HCC-2998 colon): 36.8 µM | TGI (HCT-15 colon): 43.1 µM | TGI (HL-60(TB) leukemia): 65.1 µM | TGI (HOP-62 NSCLC): 35.4 µM | TGI (HOP-92 NSCLC): 30.8 µM | TGI (HS 578T breast): 42.3 µM | TGI (HT29 colon): 36.4 µM | TGI (IGROV1 ovarian): 33.6 µM | TGI (K-562 leukemia): 89.1 µM | TGI (KM12 colon): 44.9 µM | TGI (LOX IMVI melanoma): 32.6 µM | TGI (M14 melanoma): 34.8 µM | TGI (MALME-3M melanoma): 34.1 µM | TGI (MCF7 breast): 32.5 µM | TGI (MDA-MB-231 breast): 45.5 µM | TGI (MDA-MB-435): 31.4 µM | TGI (MDA-N): 34.4 µM | TGI (MOLT-4 leukemia): 43.9 µM | TGI (NCI-H226 lung): 49.6 µM | TGI (NCI-H23 lung): 36.8 µM | TGI (NCI-H460 lung): 32.7 µM | TGI (NCI/ADR-RES ovarian): 33.7 µM | TGI (OVCAR-3 ovarian): 32.6 µM | TGI (OVCAR-4 ovarian): 37.6 µM | TGI (OVCAR-5 ovarian): 32.2 µM | TGI (OVCAR-8 ovarian): 33.1 µM | TGI (PC-3 prostate): 30.9 µM | TGI (RPMI-8226 leukemia): 53.8 µM | TGI (SF-295 CNS): 32.4 µM | TGI (SK-MEL-2 melanoma): 38.7 µM | TGI (SK-MEL-28 melanoma): 30.8 µM | TGI (SK-MEL-5 melanoma): 33.3 µM | TGI (SK-OV-3 ovarian): 38.7 µM | TGI (SN12C renal): 36.2 µM | TGI (SNB-19 CNS): 34.6 µM | TGI (SR leukemia): 53.2 µM | TGI (SW-620 colon): 37.4 µM | TGI (T-47D breast): 40.3 µM | TGI (TK-10 renal): 33.2 µM | TGI (U251 CNS): 31.4 µM | TGI (UACC-257 melanoma): 31.7 µM | TGI (UACC-62 melanoma): 72.4 µM | TGI (UO-31 renal): 29.4 µM
